In US6770596B1, “Fused tricyclic compounds, process for their preparation, and herbicidal compositions containing them” (Ishihara Sangyo Kaisha Ltd., priority 2002, dated 2004):

Columns and labels:
Assay type in all cases: in vivo
[1] = test system: cocklebur (Xanthium strumariunt, XAS); experiment: Post-emerge test, cocklebur; conditions: 250 g ai/ha, 14 days after application, rating scale 0-100 (0 no damage, 100 complete death)
Excerpt: (§1) A standard greenhouse herbicide activity screening system was used to evaluate the herbicidal efficacy and crop safety of these test compounds. Seven broadleaf weed species including redroot pigweed (Amaranthus retroflexus, AMR), velvetleaf (Abutilon theophrasti, ABT), sicklepod (Cassia obtusifolia, CAO), ivyleaf morningglory (Ipomoea hederacea, IPH), lambsquarters (Chenopodium album, CHA), common ragweed (Ambrosia artemisiifolia L., AML), and cocklebur (Xanthium strumariunt, XAS) were used as test species. Four grass weed species including green foxtail (Setaria viridis, SEV), barnyardgrass (Echinachloa crus-galli, ECC), johnsongrass (Sorghum halepense, SOH), and large crabgrass (Digitaria sanguinalis, DIS) were also used. In addition, four crop species, field corn (Zea mays L., var. Dekalb 535, CORN), soybean (Glycine max L., var. Pella 86, SOY), upland rice (Oryza sp., var.Tebonnet, RICE), and wheat (Triticum aestivum) were included all plants were grown in 10 cm square plastic pots which were filled with a sandy loam soil mix.
(§2) For pre-emerge tests, seeds were planted one day prior to application of the test compounds. All test compounds were dissolved in acetone and applied to the test pots in a volume of 187 l/ha. Test materials were applied at rates ranging from 8 g ai/ha to 1000 g ai/ha using a track sprayer equipped with a TJ8001E even flow flat fan spray nozzle. This application simulates a typical commercial field herbicide application.
(§3) For post-emerge tests, seeds were planted 8-21 days prior to the test to allow emergence and good foliage development prior to application of the test substances. At the time of the post-emerge application, plants of all species were usually at the 2-3 leaf stage of development. In the postemerge test, a commercial non-ionic surfactant was also included (0.25% v/v) to enhance wetting of the leaf surfaces of target plants.
(§4) At 14 days after application of the test materials, phytotoxicity ratings were recorded. A rating scale of 0-100 was used for both pre and post emerge tests as previously described in Research Methods in Weed Science, 2nd edition, B, Truelove, Ed., Southern Weed Science Society, Auburn University, Auburn, Ala., 1977. Briefly, “0” corresponds to no damage and “100” corresponds to complete death of all plants in the test unit. This scale was used both to determine efficacy against weed species and damage to crop species. Herbicide activity data for various compounds of this invention, which are shown by compound No. in Tables 1-3, are shown in Tables 5 and 6.

[2] = test system: velvetleaf (Abutilon theophrasti, ABT); experiment: Post-emerge test, velvetleaf; conditions: 250 g ai/ha, 14 days after application, rating scale 0-100 (0 no damage, 100 complete death)
Excerpt: as §1, §2, §3, §4

[3] = test system: velvetleaf (Abutilon theophrasti, ABT); experiment: Pre-emerge test, velvetleaf; conditions: 250 g ai/ha, 14 days after application, rating scale 0-100 (0 no damage, 100 complete death)
Excerpt: as §1, §2, §4

[4] = test system: field corn (Zea mays L., var. Dekalb 535, CORN); experiment: Pre-emerge test, crop damage field corn; conditions: pre-emerge, 250 g ai/ha, 14 days after application, rating scale 0-100 (0 no damage, 100 complete death)
Excerpt: as §1, §2, §4

[5] = test system: soybean (Glycine max L., var. Pella 86, SOY); experiment: Pre-emerge test, crop damage soybean; conditions: pre-emerge, 250 g ai/ha, 14 days after application, rating scale 0-100 (0 no damage, 100 complete death)
Excerpt: as §1, §2, §4

[6] = test system: redroot pigweed (Amaranthus retroflexus, AMR); experiment: Pre-emerge test, redroot pigweed; conditions: 250 g ai/ha, 14 days after application, rating scale 0-100 (0 no damage, 100 complete death)
Excerpt: as §1, §2, §4

[7] = test system: common ragweed (Ambrosia artemisiifolia L., AML); experiment: Pre-emerge test, common ragweed; conditions: 250 g ai/ha, 14 days after application, rating scale 0-100 (0 no damage, 100 complete death)
Excerpt: as §1, §2, §4

[8] = test system: common ragweed (Ambrosia artemisiifolia L., AML); experiment: Post-emerge test, common ragweed; conditions: 250 g ai/ha, 14 days after application, rating scale 0-100 (0 no damage, 100 complete death)
Excerpt: as §1, §2, §3, §4

[9] = test system: ivyleaf morningglory (Ipomoea hederacea, IPH); experiment: Post-emerge test, ivyleaf morningglory; conditions: 250 g ai/ha, 14 days after application, rating scale 0-100 (0 no damage, 100 complete death)
Excerpt: as §1, §2, §3, §4

[10] = test system: wheat (Triticum aestivum); experiment: Post-emerge test, crop damage wheat; conditions: post-emerge, 250 g ai/ha, 14 days after application, rating scale 0-100 (0 no damage, 100 complete death)
Excerpt: as §1, §2, §3, §4

[11] = test system: lambsquarters (Chenopodium album, CHA); experiment: Post-emerge test, lambsquarters; conditions: 250 g ai/ha, 14 days after application, rating scale 0-100 (0 no damage, 100 complete death)
Excerpt: as §1, §2, §3, §4

[12] = test system: green foxtail (Setaria viridis, SEV); experiment: Post-emerge test, green foxtail; conditions: 250 g ai/ha, 14 days after application, rating scale 0-100 (0 no damage, 100 complete death)
Excerpt: as §1, §2, §3, §4

[13] = test system: wheat (Triticum aestivum); experiment: Pre-emerge test, crop damage wheat; conditions: pre-emerge, 250 g ai/ha, 14 days after application, rating scale 0-100 (0 no damage, 100 complete death)
Excerpt: as §1, §2, §4

[14] = test system: large crabgrass (Digitaria sanguinalis, DIS); experiment: Pre-emerge test, large crabgrass; conditions: 250 g ai/ha, 14 days after application, rating scale 0-100 (0 no damage, 100 complete death)
Excerpt: as §1, §2, §4

[15] = test system: upland rice (Oryza sp., var.Tebonnet, RICE); experiment: Post-emerge test, crop damage upland rice; conditions: post-emerge, 250 g ai/ha, 14 days after application, rating scale 0-100 (0 no damage, 100 complete death)
Excerpt: as §1, §2, §3, §4

[16] = test system: johnsongrass (Sorghum halepense, SOH); experiment: Pre-emerge test, johnsongrass; conditions: 250 g ai/ha, 14 days after application, rating scale 0-100 (0 no damage, 100 complete death)
Excerpt: as §1, §2, §4

[17] = test system: johnsongrass (Sorghum halepense, SOH); experiment: Post-emerge test, johnsongrass; conditions: 250 g ai/ha, 14 days after application, rating scale 0-100 (0 no damage, 100 complete death)
Excerpt: as §1, §2, §3, §4

[18] = test system: barnyardgrass (Echinachloa crus-galli, ECC); experiment: Pre-emerge test, barnyardgrass; conditions: 250 g ai/ha, 14 days after application, rating scale 0-100 (0 no damage, 100 complete death)
Excerpt: as §1, §2, §4

[19] = test system: sicklepod (Cassia obtusifolia, CAO); experiment: Pre-emerge test, sicklepod; conditions: 250 g ai/ha, 14 days after application, rating scale 0-100 (0 no damage, 100 complete death)
Excerpt: as §1, §2, §4

[20] = test system: upland rice (Oryza sp., var.Tebonnet, RICE); experiment: Pre-emerge test, crop damage upland rice; conditions: pre-emerge, 250 g ai/ha, 14 days after application, rating scale 0-100 (0 no damage, 100 complete death)
Excerpt: as §1, §2, §4

[21] = test system: soybean (Glycine max L., var. Pella 86, SOY); experiment: Post-emerge test, crop damage soybean; conditions: post-emerge, 250 g ai/ha, 14 days after application, rating scale 0-100 (0 no damage, 100 complete death)
Excerpt: as §1, §2, §3, §4

[22] = test system: sicklepod (Cassia obtusifolia, CAO); experiment: Post-emerge test, sicklepod; conditions: 250 g ai/ha, 14 days after application, rating scale 0-100 (0 no damage, 100 complete death)
Excerpt: as §1, §2, §3, §4

[23] = test system: lambsquarters (Chenopodium album, CHA); experiment: Pre-emerge test, lambsquarters; conditions: 250 g ai/ha, 14 days after application, rating scale 0-100 (0 no damage, 100 complete death)
Excerpt: as §1, §2, §4

[24] = test system: cocklebur (Xanthium strumariunt, XAS); experiment: Pre-emerge test, cocklebur; conditions: 250 g ai/ha, 14 days after application, rating scale 0-100 (0 no damage, 100 complete death)
Excerpt: as §1, §2, §4

[25] = test system: large crabgrass (Digitaria sanguinalis, DIS); experiment: Post-emerge test, large crabgrass; conditions: 250 g ai/ha, 14 days after application, rating scale 0-100 (0 no damage, 100 complete death)
Excerpt: as §1, §2, §3, §4

[26] = test system: field corn (Zea mays L., var. Dekalb 535, CORN); experiment: Post-emerge test, crop damage field corn; conditions: post-emerge, 250 g ai/ha, 14 days after application, rating scale 0-100 (0 no damage, 100 complete death)
Excerpt: as §1, §2, §3, §4

[27] = test system: barnyardgrass (Echinachloa crus-galli, ECC); experiment: Post-emerge test, barnyardgrass; conditions: 250 g ai/ha, 14 days after application, rating scale 0-100 (0 no damage, 100 complete death)
Excerpt: as §1, §2, §3, §4

[28] = test system: ivyleaf morningglory (Ipomoea hederacea, IPH); experiment: Pre-emerge test, ivyleaf morningglory; conditions: 250 g ai/ha, 14 days after application, rating scale 0-100 (0 no damage, 100 complete death)
Excerpt: as §1, §2, §4

[29] = test system: redroot pigweed (Amaranthus retroflexus, AMR); experiment: Post-emerge test, redroot pigweed; conditions: 250 g ai/ha, 14 days after application, rating scale 0-100 (0 no damage, 100 complete death)
Excerpt: as §1, §2, §3, §4

[30] = test system: green foxtail (Setaria viridis, SEV); experiment: Pre-emerge test, green foxtail; conditions: 250 g ai/ha, 14 days after application, rating scale 0-100 (0 no damage, 100 complete death)
Excerpt: as §1, §2, §4

Structure (SMILES)	Post-emerge Herbicidal Activity XAS (phytotoxicity rating) [1]	Post-emerge Herbicidal Activity ABT (phytotoxicity rating) [2]	Pre-emerge Herbicidal Activity ABT (phytotoxicity rating) [3]	Pre-emerge crop damage CORN (phytotoxicity rating) [4]	Pre-emerge crop damage SOY (phytotoxicity rating) [5]	Pre-emerge Herbicidal Activity AMR (phytotoxicity rating) [6]	Pre-emerge Herbicidal Activity AML (phytotoxicity rating) [7]	Post-emerge Herbicidal Activity AML (phytotoxicity rating) [8]	Post-emerge Herbicidal Activity IPH (phytotoxicity rating) [9]	Post-emerge crop damage WHEAT (phytotoxicity rating) [10]	Post-emerge Herbicidal Activity CHA (phytotoxicity rating) [11]	Post-emerge Herbicidal Activity SEV (phytotoxicity rating) [12]	Pre-emerge crop damage WHEAT (phytotoxicity rating) [13]	Pre-emerge Herbicidal Activity DIS (phytotoxicity rating) [14]	Post-emerge crop damage RICE (phytotoxicity rating) [15]	Pre-emerge Herbicidal Activity SOH (phytotoxicity rating) [16]	Post-emerge Herbicidal Activity SOH (phytotoxicity rating) [17]	Pre-emerge Herbicidal Activity ECC (phytotoxicity rating) [18]	Pre-emerge Herbicidal Activity CAO (phytotoxicity rating) [19]	Pre-emerge crop damage RICE (phytotoxicity rating) [20]	other results
CC1Oc2cc(F)c(-c3nn(C)c(OC(F)F)c3Cl)c3c2N(C1=O)C(C)C(=O)N3 (mixture of isomers) [1-57]	100	100	100	50	50	100	100	80	100	50	100	99	35	100	65	100	40	100	100	65	Post-emerge crop damage SOY (phytotoxicity rating) [21]: 100; Post-emerge Herbicidal Activity CAO (phytotoxicity rating) [22]: 100; Pre-emerge Herbicidal Activity CHA (phytotoxicity rating) [23]: 100; Pre-emerge Herbicidal Activity XAS (phytotoxicity rating) [24]: 95; Post-emerge Herbicidal Activity DIS (phytotoxicity rating) [25]: 10; Post-emerge crop damage CORN (phytotoxicity rating) [26]: 10; Post-emerge Herbicidal Activity ECC (phytotoxicity rating) [27]: 80; Pre-emerge Herbicidal Activity IPH (phytotoxicity rating) [28]: 100; Post-emerge Herbicidal Activity AMR (phytotoxicity rating) [29]: 100; Pre-emerge Herbicidal Activity SEV (phytotoxicity rating) [30]: 100
Cn1c(C(F)(F)F)cc(=O)n(-c2c(F)cc3c4c2NC(=O)CN4C(=O)CO3)c1=O [1-1, 8-[1-methyl-6-(trifluoromethyl)-2,4-(1H, 3H)-pyrimidinedione-3-yl]-9-fluoro-5H-pyrazino[1,2,3-de]-1,4-benzoxazine-3,6-(2H, 7H)-dione]	100	100	100	100	100	100	100	65	100	25	98	95	100	100	99	100	25	100	100	100	Post-emerge crop damage SOY (phytotoxicity rating) [21]: 95; Post-emerge Herbicidal Activity CAO (phytotoxicity rating) [22]: 40; Pre-emerge Herbicidal Activity CHA (phytotoxicity rating) [23]: 100; Pre-emerge Herbicidal Activity XAS (phytotoxicity rating) [24]: 99; Post-emerge Herbicidal Activity DIS (phytotoxicity rating) [25]: 0; Post-emerge crop damage CORN (phytotoxicity rating) [26]: 0; Post-emerge Herbicidal Activity ECC (phytotoxicity rating) [27]: 60; Pre-emerge Herbicidal Activity IPH (phytotoxicity rating) [28]: 100; Post-emerge Herbicidal Activity AMR (phytotoxicity rating) [29]: 100; Pre-emerge Herbicidal Activity SEV (phytotoxicity rating) [30]: 100
CC1C(=O)Nc2c3c(cc(F)c2-n2c(=O)cc(C(F)(F)F)n(C)c2=O)OCC(=O)N31 (stereo not drawn) [1-2]	75	100	100	100	99	100	100	65	90	25	80	60	100	100	70	100	20	100	99	100	Post-emerge crop damage SOY (phytotoxicity rating) [21]: 50; Post-emerge Herbicidal Activity CAO (phytotoxicity rating) [22]: 0; Pre-emerge Herbicidal Activity CHA (phytotoxicity rating) [23]: 100; Pre-emerge Herbicidal Activity XAS (phytotoxicity rating) [24]: 99; Post-emerge Herbicidal Activity DIS (phytotoxicity rating) [25]: 0; Post-emerge crop damage CORN (phytotoxicity rating) [26]: 10; Post-emerge Herbicidal Activity ECC (phytotoxicity rating) [27]: 60; Pre-emerge Herbicidal Activity IPH (phytotoxicity rating) [28]: 100; Post-emerge Herbicidal Activity AMR (phytotoxicity rating) [29]: 90; Pre-emerge Herbicidal Activity SEV (phytotoxicity rating) [30]: 100
